Test results taken from ChEMBL document CHEMBL4602605, “Fluoroquinolones structural and medicinal developments (2013-2018): Where are we now?” (Bioorg Med Chem, 2019).
In brackets after ≈: the same amount, converted by molar mass.

Key:
Assay type in all cases: functional
Staphylococcus aureus [1] = assay: Antimicrobial activity against Staphylococcus aureus ATCC 29213 by CLSI-based broth microdilution method
Escherichia coli = assay: Antimicrobial activity against tolC deficient Escherichia coli KD65 by CLSI-based broth microdilution method
Pseudomonas aeruginosa = assay: Antimicrobial activity against Pseudomonas aeruginosa PAO1 by CLSI-based broth microdilution method
Staphylococcus aureus [2] = assay: Antimicrobial activity against methicillin-susceptible Staphylococcus aureus ATCC 29213 incubated for 18 to 24 hrs by two-fold serial dilution method
Enterococcus faecium = assay: Antimicrobial activity against Enterococcus faecium ATCC 700221 incubated for 18 to 24 hrs by two-fold serial dilution method
[3] = tested on: Staphylococcus epidermidis; assay: Antimicrobial activity against methicillin-susceptible Staphylococcus epidermidis ATCC 12228 incubated for 18 to 24 hrs by two-fold serial dilution method
Staphylococcus aureus [4] = assay: Antimicrobial activity against methicillin-resistant Staphylococcus aureus ATCC 33591 incubated for 18 to 24 hrs by two-fold serial dilution method
[5] = tested on: Mycobacterium tuberculosis; assay: Antimicrobial activity against Mycobacterium tuberculosis H37Rv ATCC 27294 incubated for 7 days by microplate Alamar blue assay; conditions: H37Rv ATCC 27294, 168 h
[6] = Staphylococcus aureus, ATCC 29213, read-out: MIC
[7] = Escherichia coli, KD65, read-out: MIC

SMILES: O=C(O)c1cn(C2CC2)c2c3c(c(F)cc2c1=O)N1CCCC1CS(=O)(=O)C3 (stereo not given)
- MIC (Staphylococcus aureus [1]; [6]): 1 µg/mL (≈ 2.46 µM)
- MIC (Escherichia coli; [7]): 0.25 µg/mL (≈ 0.615 µM)
- MIC (Pseudomonas aeruginosa): > 64 µg/mL

SMILES: O=C1CC2CCCN2c2c(F)cc3c(=O)c(C(=O)O)cn(C4CC4)c3c2N1 (stereo not given)
- MIC (Staphylococcus aureus [1]; [6]): > 64 µg/mL
- MIC (Escherichia coli; [7]): 4 µg/mL (≈ 10.8 µM)
- MIC (Pseudomonas aeruginosa): > 64 µg/mL

SMILES: O=C(O)c1cn(C2CC2)c2c3c(c(F)cc2c1=O)N1CCCC1CCO3 (stereo not given)
- MIC (Staphylococcus aureus [1]; [6]): 0.21 µg/mL (≈ 0.586 µM)
- MIC (Escherichia coli; [7]): 0.008 µg/mL (≈ 0.0223 µM)
- MIC (Pseudomonas aeruginosa): 21 µg/mL (≈ 58.6 µM)

SMILES: N[C@@H]1C[C@@H]2CCCc3c(c(F)cc4c(=O)c(C(=O)O)cn(C5CC5)c34)N2C1
- MIC (Staphylococcus aureus [1]; [6]): 0.25 µg/mL (≈ 0.673 µM)
- MIC (Escherichia coli; [7]): 0.25 µg/mL (≈ 0.673 µM)
- MIC (Pseudomonas aeruginosa): 1 µg/mL (≈ 2.69 µM)

SMILES: N[C@H]1C[C@H]2CCOc3c(c(F)cc4c(=O)c(C(=O)O)cn(C5CC5)c34)N2C1
- MIC (Staphylococcus aureus [1]; [6]): 0.015 µg/mL (≈ 0.0402 µM)
- MIC (Escherichia coli; [7]): 0.004 µg/mL (≈ 0.0107 µM)
- MIC (Pseudomonas aeruginosa): 0.093 µg/mL (≈ 0.249 µM)

SMILES: COc1c(N2CCN(C/C(C)=N/Nc3ccc(F)c(Cl)c3)CC2)c(F)cc2c(=O)c(C(=O)O)cn(C3CC3)c12
- MIC (Staphylococcus aureus [2]): 0.125 µg/mL (≈ 0.223 µM)
- MIC (Enterococcus faecium): 64 µg/mL (≈ 114 µM)
- MIC [3]: 0.125 µg/mL (≈ 0.223 µM)
- MIC (Staphylococcus aureus [4]): 0.125 µg/mL (≈ 0.223 µM)
- MIC [5]: 0.396 µM (≈ 0.222 µg/mL)

SMILES: N[C@@H]1CCN2c3c(F)cc4c(=O)c(C(=O)O)cn(C5CC5)c4c3COC[C@H]12
- MIC (Staphylococcus aureus [1]; [6]): 2 µg/mL (≈ 5.36 µM)
- MIC (Escherichia coli; [7]): 0.004 µg/mL (≈ 0.0107 µM)
- MIC (Pseudomonas aeruginosa): 0.5 µg/mL (≈ 1.34 µM)

SMILES: COc1c(N2CCN(C/C(C)=N/Nc3nc4ccccc4[nH]3)CC2)c(F)cc2c(=O)c(C(=O)O)cn(C3CC3)c12
- MIC (Staphylococcus aureus [2]): 1 µg/mL (≈ 1.83 µM)
- MIC (Enterococcus faecium): 128 µg/mL (≈ 234 µM)
- MIC [3]: 1 µg/mL (≈ 1.83 µM)
- MIC (Staphylococcus aureus [4]): 1 µg/mL (≈ 1.83 µM)
- MIC [5]: 0.434 µM (≈ 0.238 µg/mL)

SMILES: N[C@@H]1C[C@@H]2CC=Cc3c(c(F)cc4c(=O)c(C(=O)O)cn(C5CC5)c34)N2C1
- MIC (Staphylococcus aureus [1]; [6]): 0.25 µg/mL (≈ 0.677 µM)
- MIC (Escherichia coli; [7]): 0.125 µg/mL (≈ 0.338 µM)
- MIC (Pseudomonas aeruginosa): 1 µg/mL (≈ 2.71 µM)

SMILES: O=C(O)c1cn(C2CC2)c2c3c(c(F)cc2c1=O)N1CCCC1C[S+]([O-])C3 (stereo in doubt; 440)
- MIC (Staphylococcus aureus [1]): 1 µg/mL (≈ 2.56 µM)
- MIC (Escherichia coli): 16 µg/mL (≈ 41 µM)
- MIC (Pseudomonas aeruginosa): > 16 µg/mL

SMILES: N[C@H]1C[C@H]2CCCc3c(c(F)cc4c(=O)c(C(=O)O)cn(C5CC5)c34)N2C1
- MIC (Staphylococcus aureus [1]; [6]): 0.5 µg/mL (≈ 1.35 µM)
- MIC (Escherichia coli; [7]): 0.015 µg/mL (≈ 0.0404 µM)
- MIC (Pseudomonas aeruginosa): 0.5 µg/mL (≈ 1.35 µM)

SMILES: CN1Cc2c(c(F)cc3c(=O)c(C(=O)O)cn(C4CC4)c23)N2CCCC2C1 (stereo not given)
- MIC (Staphylococcus aureus [1]; [6]): 32 µg/mL (≈ 86.2 µM)
- MIC (Escherichia coli; [7]): 2 µg/mL (≈ 5.38 µM)
- MIC (Pseudomonas aeruginosa): > 64 µg/mL

SMILES: N[C@H]1C[C@@H]2CCCc3c(c(F)cc4c(=O)c(C(=O)O)cn(C5CC5)c34)N2C1
- MIC (Staphylococcus aureus [1]; [6]): 0.038 µg/mL (≈ 0.102 µM)
- MIC (Escherichia coli; [7]): 0.006 µg/mL (≈ 0.0162 µM)
- MIC (Pseudomonas aeruginosa): 0.45 µg/mL (≈ 1.21 µM)

SMILES: C/N=C1/Cc2c(c(F)cc3c(=O)c(C(=O)O)cn(C4CC4)c23)N2CCCC2C1 (stereo not given)
- MIC (Staphylococcus aureus [1]; [6]): 0.25 µg/mL (≈ 0.652 µM)
- MIC (Escherichia coli; [7]): 0.06 µg/mL (≈ 0.156 µM)
- MIC (Pseudomonas aeruginosa): > 32 µg/mL

SMILES: N[C@@H]1C[C@H]2CCCc3c(c(F)cc4c(=O)c(C(=O)O)cn(C5CC5)c34)N2C1
- MIC (Staphylococcus aureus [1]; [6]): 8 µg/mL (≈ 21.5 µM)
- MIC (Escherichia coli; [7]): 8 µg/mL (≈ 21.5 µM)
- MIC (Pseudomonas aeruginosa): 32 µg/mL (≈ 86.2 µM)

SMILES: O=C(O)c1cn(C2CC2)c2c3c(c(F)cc2c1=O)N1CCCC1C(=O)NC3 (stereo not given)
- MIC (Staphylococcus aureus [1]; [6]): 16 µg/mL (≈ 43.1 µM)
- MIC (Escherichia coli; [7]): 8 µg/mL (≈ 21.5 µM)
- MIC (Pseudomonas aeruginosa): > 64 µg/mL

SMILES: O=C(O)c1cn(C2CC2)c2c3c(c(F)cc2c1=O)N1CCCC1CC(O)C3O (stereo not given)
- MIC (Staphylococcus aureus [1]; [6]): < 0.06 µg/mL
- MIC (Escherichia coli; [7]): < 0.06 µg/mL
- MIC (Pseudomonas aeruginosa): 8 µg/mL (≈ 20.6 µM)

SMILES: O=C(O)c1cn(C2CC2)c2c(cc(F)c3c2nnn3-c2ccc(F)cc2)c1=O
- MIC (Staphylococcus aureus [1]; [6]): 0.06 µg/mL (≈ 0.157 µM)
- MIC (Escherichia coli; [7]): 0.25 µg/mL (≈ 0.654 µM)
- MIC (Pseudomonas aeruginosa): 40 µg/mL (≈ 105 µM)

SMILES: N[C@@H]1CCN2c3c(F)cc4c(=O)c(C(=O)O)cn(C5CC5)c4c3C=CC[C@H]12
- MIC (Staphylococcus aureus [1]; [6]): 0.045 µg/mL (≈ 0.122 µM)
- MIC (Escherichia coli; [7]): 0.06 µg/mL (≈ 0.162 µM)
- MIC (Pseudomonas aeruginosa): 0.38 µg/mL (≈ 1.03 µM)

SMILES: N[C@@H]1CCN2c3c(F)cc4c(=O)c(C(=O)O)cn(C5CC5)c4c3C=NC[C@H]12
- MIC (Staphylococcus aureus [1]; [6]): 4 µg/mL (≈ 10.8 µM)
- MIC (Escherichia coli; [7]): 0.125 µg/mL (≈ 0.337 µM)
- MIC (Pseudomonas aeruginosa): 1 µg/mL (≈ 2.7 µM)

SMILES: O=C(O)c1cn(C2CC2)c2c3c(c(F)cc2c1=O)N1CCCC1COC3 (stereo not given)
- MIC (Staphylococcus aureus [1]; [6]): 0.5 µg/mL (≈ 1.4 µM)
- MIC (Escherichia coli; [7]): 1 µg/mL (≈ 2.79 µM)
- MIC (Pseudomonas aeruginosa): > 64 µg/mL

SMILES: N[C@H]1CCN2c3c(F)cc4c(=O)c(C(=O)O)cn(C5CC5)c4c3C=CC[C@H]12
- MIC (Staphylococcus aureus [1]; [6]): 0.007 µg/mL (≈ 0.0189 µM)
- MIC (Escherichia coli; [7]): 0.0022 µg/mL (≈ 0.00596 µM)
- MIC (Pseudomonas aeruginosa): 0.16 µg/mL (≈ 0.433 µM)

SMILES: N[C@@H]1C[C@H]2CC=Cc3c(c(F)cc4c(=O)c(C(=O)O)cn(C5CC5)c34)N2C1
- MIC (Staphylococcus aureus [1]; [6]): 2 µg/mL (≈ 5.41 µM)
- MIC (Escherichia coli; [7]): 2 µg/mL (≈ 5.41 µM)
- MIC (Pseudomonas aeruginosa): 32 µg/mL (≈ 86.6 µM)

SMILES: N[C@H]1CCN2c3c(F)cc4c(=O)c(C(=O)O)cn(C5CC5)c4c3C=NC[C@H]12
- MIC (Staphylococcus aureus [1]; [6]): 2 µg/mL (≈ 5.4 µM)
- MIC (Escherichia coli; [7]): ≤ 0.06 µg/mL
- MIC (Pseudomonas aeruginosa): 0.5 µg/mL (≈ 1.35 µM)

SMILES: O=C(O)c1cn(C2CC2)c2c3c(c(F)cc2c1=O)N1CCCC1CCC3 (stereo not given)
- MIC (Staphylococcus aureus [1]; [6]): 0.1 µg/mL (≈ 0.281 µM)
- MIC (Escherichia coli; [7]): 0.18 µg/mL (≈ 0.505 µM)
- MIC (Pseudomonas aeruginosa): 17 µg/mL (≈ 47.7 µM)

SMILES: O=C(O)c1cn(C2CC2)c2c3c(c(F)cc2c1=O)N1CCCC1C/C(=N\O)C3 (stereo not given)
- MIC (Staphylococcus aureus [1]; [6]): 0.125 µg/mL (≈ 0.324 µM)
- MIC (Escherichia coli; [7]): 0.03 µg/mL (≈ 0.0778 µM)
- MIC (Pseudomonas aeruginosa): > 16 µg/mL

SMILES: N[C@@H]1CCN2c3c(F)cc4c(=O)c(C(=O)O)cn(C5CC5)c4c3SC[C@H]12
- MIC (Staphylococcus aureus [1]; [6]): 0.125 µg/mL (≈ 0.333 µM)
- MIC (Escherichia coli; [7]): 0.03 µg/mL (≈ 0.0799 µM)
- MIC (Pseudomonas aeruginosa): 4 µg/mL (≈ 10.7 µM)
